Laboratory results: US5767253A, “A83543 Compounds; factors Q, R, S, and T” (priority 1995, dated 1998)
Values after ≈ are worked out from the molar mass of the structure shown.

Columns and labels:
[1] = test system: Two-spotted Spider Mite; experiment: Mite/insect screen, Two-spotted Spider Mite (TSSM); assay type: in vivo; details: Tetranychus urticae, 4-5 day, mean of single replicate tests
Protocol: (§1) The Formula 2 compounds were tested for miticidal and insecticidal activity in the following mite/insect screen. Each test compound was formulated by dissolving the compound in an acetone-alcohol (1:1) mixture containing 23 g of TOXIMUL R (sulfonate/nonionic emulsifier blend) and 13 g of TOXIMUL S (sulfonate/nonionic emulsifier blend) per liter. These mixtures were then diluted with water to give the indicated concentrations.
(§2) Two-spotted spider mites and cotton aphids were introduced on squash cotyledons and allowed to establish on both leaf surfaces. The leaves were then sprayed with 5 ml of test solutions using a DeVilbiss atomizing sprayer at 10 psi. Both surfaces of the leaves were covered until run off and then allowed to dry for one hour. After standard exposure periods percent mortality was evaluated. Additional insects were evaluated using similar formulations and evaluation procedures. The results are reported in Table V. The following abbreviations are used: […]

[2] = test system: neonate tobacco budworm; experiment: LD50 against neonate tobacco budworm; assay type: in vivo; details: Heliothis virescens; neonate larvae; mean of two tests; mortality evaluated at 24 and 48 hours
Protocol: The Formula 2 compounds were evaluated in the following assay to determine the LD50 against neonate tobacco budworm (Heliothis virescens). A petri dish (100 mm ×20 mm) is inverted and the lid lined with a #1 qualitative filter paper. Ten neonate larvae are placed in each dish and a 1 ml test solution is pipetted onto the insects. The petri dish bottom is then placed on the lid to contain the larvae. At 1 hr. after treatment, a small piece of Heliothis diet (modified slurry, Southland Products, Lake Village, Ariz.) is added to each dish. The mortality is evaluated at 24 and 48 hours. The tests were run in triplicate.

[3] = test system: Beet Armyworm; experiment: Mite/insect screen, Beet Armyworm (BAW); assay type: in vivo, Spodoptera exiqua; details: Spodoptera exigua, 144 h, 6 day, mean of single replicate tests
Protocol: as §1, §2

[4] = test system: Adult Stablefly; experiment: Activity against adult stablefly (in vitro); assay type: in vivo; details: Stomoxys calcitrans
Excerpt: (§3) Tables VII and VIII summarize in vitro studies using compounds of the present invention against members of the insect order Diptera.

[5] = test system: Blowfly Larvae; experiment: Activity against blowfly larvae (in vitro); assay type: in vivo
Excerpt: as §3

[6] = test system: Rootknqt Nemat.ode; experiment: Mite/insect screen, Rootknot Nematode (NEM); assay type: in vivo, Meliiodyne spp.; details: 264 h, 11 day, mean of single replicate tests
Protocol: as §1, §2

[7] = test system: Tobacco Budworm; experiment: Mite/insect screen, Tobacco Budworm (TBW); assay type: in vivo; details: Heliothis virescens, 144 h, 6 day, mean of single replicate tests
Protocol: as §1, §2

[8] = test system: Aster Leafhopper; experiment: Mite/insect screen, Aster Leafhopper (ALH); assay type: in vivo; details: Macrosteles fascifrons, 24 hr, mean of single replicate tests
Protocol: as §1, §2

[9] = test system: Cotton Aphid; experiment: Mite/insect screen, Cotton Aphid (CA); assay type: in vivo, Aphis gossypii Glover; details: Aphis gossypii, 4-5 day, mean of single replicate tests
Protocol: as §1, §2

[10] = test system: Southern Corn Rootworm; experiment: Mite/insect screen, Southern Corn Rootworm (SCRW); assay type: in vivo, Diabrotica undecimpunctata howardi; details: 264 h, 11 day, mean of single replicate tests
Protocol: as §1, §2

[11] = test system: German Cockroach; experiment: Mite/insect screen, German Cockroach (GECR); assay type: in vivo; details: Blattella germanica, mean of single replicate tests
Protocol: as §1, §2

SMILES	inhibition at 50 ppm [1] [%]	inhibition at 400 ppm [1] [%]	LC50 [2] [mg/L]	inhibition at 50 ppm [3] [%]	inhibition at 400 ppm [3] [%]	% mortality ([5]; 5 ppm, 24 hrs.) [%]	% mortality ([5]; 5 ppm, 48 hrs.) [%]	% mortality ([5]; 10 ppm, 24 hrs.) [%]	inhibition at 400 ppm [6] [%]	inhibition at 21 ppm [7] [%]	inhibition at 64 ppm [7] [%]	inhibition at 50 ppm [8] [%]	inhibition at 400 ppm [8] [%]	inhibition at 50 ppm [9] [%]	inhibition at 400 ppm [9] [%]	inhibition at 400 ppm [10] [%]	inhibition at 50 ppm ([11]; 168 h, 7 day) [%]	inhibition at 400 ppm ([11]; 168 h, 7 day) [%]	inhibition at 50 ppm ([11]; 504 h, 21 day) [%]	inhibition at 400 ppm ([11]; 504 h, 21 day) [%]	other results
CC[C@H]1CCC[C@H](O[C@H]2CC[C@H](N(C)C)[C@@H](C)O2)[C@@H](C)C(=O)C2=C[C@@H]3[C@@H](C=C(C)[C@@H]4C[C@@H](O[C@@H]5O[C@@H](C)[C@H](OC)[C@@H](OC)[C@H]5O)C[C@@H]34)[C@@H]2CC(=O)O1 [A83543Q]	70	100	0.39 (≈ 0.533 µM)	100	100	90	90	100	0	100	100	100	100	0	0	0	0	0	0	0	mortality at 5 ppm ([4]; 24 h): 50%; mortality at 10 ppm ([4]; 24 h): 90%; mortality at 5 ppm ([4]; 48 h): 90%; mortality at 10 ppm ([4]; 48 h): 100%; % mortality ([5]; 10 ppm, 48 hrs.): 100%
CO[C@@H]1[C@@H](OC)[C@@H](O)[C@H](O[C@H]2C[C@H]3[C@@H]4C=C5C(=O)[C@H](C)[C@@H](O[C@H]6CC[C@H](N(C)C)[C@@H](C)O6)CCC[C@H](C)OC(=O)C[C@H]5[C@@H]4C=C[C@@H]3C2)O[C@H]1C [A83543S]	0	0	53 (≈ 75.3 µM)	100	100	0	0	60	0	26	53	60	100	0	0	0	0	0	0	20	mortality at 50 ppm ([4]; 24 h): 100%; mortality at 100 ppm ([4]; 24 h): 90%; mortality at 50 ppm ([4]; 48 h): 100%; mortality at 100 ppm ([4]; 48 h): 100%; % mortality ([5]; 10 ppm, 48 hrs.): 60%
CC[C@H]1CCC[C@H](O[C@H]2CC[C@H](NC)[C@@H](C)O2)[C@@H](C)C(=O)C2=C[C@@H]3[C@@H](C=C[C@@H]4C[C@@H](O[C@@H]5O[C@@H](C)[C@H](OC)[C@@H](OC)[C@H]5O)C[C@@H]34)[C@@H]2CC(=O)O1 [A83543R]	85	90	14.5 (≈ 20.6 µM)	0	0	90	100	100	0	63	88	0	0	0	0	0	0	0	20	0	mortality at 5 ppm ([4]; 24 h): 70%; mortality at 10 ppm ([4]; 24 h): 90%; mortality at 5 ppm ([4]; 48 h): 100%; mortality at 10 ppm ([4]; 48 h): 100%; % mortality ([5]; 10 ppm, 48 hrs.): 100%
CC[C@H]1CCC[C@H](O[C@H]2CC[C@H](N(C)C)[C@@H](C)O2)[C@@H](C)C(=O)C2=C[C@@H]3[C@@H](C=C[C@@H]4C[C@@H](O[C@@H]5O[C@@H](C)[C@H](OC)[C@@H](O)[C@H]5O)C[C@@H]34)[C@@H]2CC(=O)O1 [A83543T]	0	0	> 64	0	0	–	–	–	0	0	0	20	100	0	0	0	0	0	0	0	mortality at 50 ppm ([4]; 24 h): 60%; mortality at 100 ppm ([4]; 24 h): 80%; mortality at 50 ppm ([4]; 48 h): 70%; mortality at 100 ppm ([4]; 48 h): 90%; % mortality ([5]; 50 ppm, 24 hrs.): 0%; % mortality ([5]; 50 ppm, 48 hrs.): 0%; % mortality ([5]; 100 ppm, 24 hrs.): 0%; % mortality ([5]; 100 ppm, 48 hrs.): 0%
